Data on 11 molecules can be found in ChEMBL document CHEMBL1201862, “PubChem BioAssay data set” (2004).

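How tested: cells in 96-well plates exposed to compound for 48 hours at five concentrations. The concentration for 50% growth inhibition is given as GI50.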 Activity calls are given as the source filed them. No stated cut-off is given here; in the data, active = GI50 up to about 1.1 µM and inactive = higher.

Some test systems named below: PC-3; T47D; A549; UO-31; RPMI-8226; TK-10; NCI/ADR-RES; NCI-H226; MDA-MB-435; SNB-19; SK-OV-3; CAKI-1; NCI-H460; OVCAR-3; SK-MEL-28; MCF7; CCRF-CEM; HL-60; SR; MDA-N.
What all share (experiment): NCI anticancer screen, dose series, 48 h

For the molecule `CC[N+](C)(CC)CCN1C(=O)c2ccccc2S1(=O)=O`, the GI50 in the experiment on PC-3, in the experiment with T47D, with A549, in the experiment with UO-31, with RPMI-8226 and in the experiment on TK-10 was > 100 µM (inactive) throughout. Moreover, the GI50 in the experiment with NCI/ADR-RES, in the experiment on NCI-H226, in the experiment with MDA-MB-435, with SNB-19, in the experiment with SK-OV-3 and in the experiment on CAKI-1 was > 100 µM (inactive) in each case. Also, the GI50 in the experiment with NCI-H460, in the experiment with OVCAR-3, in the experiment on SK-MEL-28, with MCF7, with CCRF-CEM and in the experiment with HL-60 was > 100 µM (inactive) in each case.

With `COc1ccc(-c2[nH]c(=O)n(C3OC(CO)C(O)C(O)C3O)c(=O)c2C#N)cc1` (stereo not drawn), the GI50 in the experiment with PC-3, with T47D, with A549, in the experiment on UO-31, in the experiment with RPMI-8226 and in the experiment on TK-10 was > 100 µM (inactive) throughout. Moreover, the GI50 with NCI/ADR-RES, in the experiment with NCI-H226, with MDA-MB-435, in the experiment with SNB-19, in the experiment on SK-OV-3 and in the experiment on CAKI-1 was > 100 µM (inactive) in each case. In addition, the GI50 with NCI-H460, with OVCAR-3, in the experiment on SK-MEL-28, in the experiment on MCF7, with CCRF-CEM and in the experiment on SR was > 100 µM (inactive) throughout.

With `c1ccc(C/C(=N\Nc2nc3ccccc3[nH]2)c2ccccn2)cc1`, the GI50 is < 0.01 µM (active) with PC-3; < 0.01 µM (active) with T47D; 0.069 µM (active) in the experiment on A549; 0.0261 µM (active) with UO-31; < 0.01 µM (active) in the experiment with RPMI-8226; < 0.0164 µM (active) in the experiment with NCI/ADR-RES. In addition, the GI50 with NCI-H226 was < 0.0279 µM (active); with MDA-MB-435, 0.385 µM (active); with SNB-19 it was 0.254 µM (active); in the experiment on SK-OV-3, 0.033 µM (active); with MDA-N, 0.262 µM (active); in the experiment with CAKI-1, 0.056 µM (active). The GI50 was 0.126 µM (active) with NCI-H460; < 0.01 µM (active) with OVCAR-3; 0.231 µM (active) in the experiment with SK-MEL-28; < 0.01 µM (active) in the experiment on MCF7; < 0.01 µM (active) with CCRF-CEM.

Turning to `COc1ccc(/C=C2\CSC/C(=C\c3ccc(OC)c(OC)c3OC)C2=O)c(OC)c1OC`, the GI50 in the experiment on PC-3 was 47.3 µM (inactive); in the experiment with T47D, > 100 µM (inactive); in the experiment on A549, > 100 µM (inactive); in the experiment with UO-31, > 100 µM (inactive); in the experiment with RPMI-8226 it was 16.4 µM (inactive); in the experiment with TK-10 it was 31.6 µM (inactive). Also, the GI50 in the experiment with NCI/ADR-RES is 23.1 µM (inactive); in the experiment with NCI-H226 it was > 100 µM (inactive); in the experiment on SNB-19 it was > 100 µM (inactive); with SK-OV-3 it was > 100 µM (inactive); in the experiment with MDA-N it was 30.3 µM (inactive); in the experiment on NCI-H460 it was 34.5 µM (inactive). The GI50 is 52.1 µM (inactive) in the experiment with OVCAR-3; 28.1 µM (inactive) in the experiment on SK-MEL-28; 65 µM (inactive) in the experiment with MCF7; 12.9 µM (inactive) with CCRF-CEM; 29.2 µM (inactive) with HL-60; 26.9 µM (inactive) with SR.

As for `CC12CCC(CC1=O)C2(C)CCC(N)=O` (stereo not drawn), the GI50 in the experiment on PC-3, in the experiment on T47D, in the experiment with A549, in the experiment on UO-31, in the experiment with RPMI-8226 and with TK-10 was > 100 µM (inactive) in each case. For the same molecule, the GI50 with NCI/ADR-RES, in the experiment on NCI-H226, in the experiment with MDA-MB-435, in the experiment with SNB-19, in the experiment on SK-OV-3 and in the experiment with MDA-N was > 100 µM (inactive) each time. Also, the GI50 in the experiment with CAKI-1, in the experiment with OVCAR-3, with SK-MEL-28, in the experiment with MCF7 and in the experiment on CCRF-CEM was > 100 µM (inactive) each time.

For `CC(CO)C1=CC(C#CCOCc2ccccc2)N(C(=O)Oc2ccccc2)c2ccccc21` (stereo not drawn), the GI50 was 14.4 µM (inactive) with PC-3; 3.76 µM (inactive) with T47D; 9.98 µM (inactive) in the experiment with A549; 26.4 µM (inactive) with UO-31; 13.1 µM (inactive) with RPMI-8226; 48.1 µM (inactive) in the experiment on TK-10. In addition, the GI50 was 8.89 µM (inactive) in the experiment with NCI/ADR-RES; 40.7 µM (inactive) in the experiment on NCI-H226; 15.5 µM (inactive) with MDA-MB-435; 32.5 µM (inactive) with SNB-19; 34.9 µM (inactive) in the experiment on SK-OV-3; 21.3 µM (inactive) with MDA-N. The GI50 in the experiment on CAKI-1 is 18.7 µM (inactive); with NCI-H460 it was 18 µM (inactive); in the experiment with OVCAR-3 it was 9.35 µM (inactive); in the experiment with SK-MEL-28, 54.5 µM (inactive); in the experiment with CCRF-CEM, 15 µM (inactive); in the experiment on HL-60, 26.3 µM (inactive). Besides, the GI50 in the experiment with SR was 9.53 µM (inactive).

`C=CCN1C(=O)/C(=C/c2ccccc2)NC1=S`: the GI50 is > 100 µM (inactive) with PC-3; > 100 µM (inactive) with T47D; 88.9 µM (inactive) in the experiment with A549; > 100 µM (inactive) with UO-31; 48.5 µM (inactive) with RPMI-8226; > 100 µM (inactive) in the experiment with TK-10. The GI50 was > 100 µM (inactive) in the experiment with NCI/ADR-RES; 15.6 µM (inactive) with NCI-H226; > 100 µM (inactive) with MDA-MB-435; > 100 µM (inactive) in the experiment with SNB-19; > 100 µM (inactive) in the experiment with SK-OV-3; > 100 µM (inactive) in the experiment with CAKI-1. Moreover, the GI50 with NCI-H460 was > 100 µM (inactive); in the experiment with OVCAR-3 it was > 100 µM (inactive); in the experiment on SK-MEL-28 it was > 100 µM (inactive); in the experiment with MCF7 it was > 100 µM (inactive); in the experiment on CCRF-CEM it was > 100 µM (inactive); with HL-60, 43.5 µM (inactive). The GI50 in the experiment with SR was > 100 µM (inactive).

On to `COc1ccc(-c2nc(SCC(=O)N/N=C/c3ccc(N(C)C)cc3)[nH]c2-c2ccc(OC)cc2)cc1`, for which the GI50 with PC-3 is 44.8 µM (inactive); in the experiment on T47D it was 10.6 µM (inactive); with A549 it was 17.6 µM (inactive); in the experiment on UO-31, 82.8 µM (inactive); in the experiment with TK-10, > 100 µM (inactive); in the experiment on NCI/ADR-RES, > 100 µM (inactive). Further, the GI50 with MDA-MB-435 was 74.8 µM (inactive); in the experiment on SNB-19, > 100 µM (inactive); with SK-OV-3, > 100 µM (inactive); with MDA-N it was 76.9 µM (inactive); in the experiment on CAKI-1 it was > 100 µM (inactive); in the experiment with NCI-H460 it was 32.7 µM (inactive). Besides, the GI50 in the experiment on OVCAR-3 is 20.1 µM (inactive); in the experiment with SK-MEL-28, > 100 µM (inactive); in the experiment with MCF7 it was 13.5 µM (inactive); in the experiment on CCRF-CEM it was 8.57 µM (inactive); in the experiment on HL-60, 11.5 µM (inactive).

Consider `CC(C)(C)C(=O)C(Cc1ccccc1)C(=O)C(C)(C)C`, for which the GI50 in the experiment on PC-3 is 46.7 µM (inactive); in the experiment on T47D, 25.5 µM (inactive); in the experiment on A549, > 100 µM (inactive); with UO-31 it was 81.7 µM (inactive); with RPMI-8226, 37.4 µM (inactive); with TK-10, > 100 µM (inactive). Further, the GI50 is 51.6 µM (inactive) with NCI/ADR-RES; > 100 µM (inactive) with NCI-H226; > 100 µM (inactive) with SNB-19; 23.2 µM (inactive) in the experiment on SK-OV-3; > 100 µM (inactive) in the experiment on MDA-N; > 100 µM (inactive) in the experiment on CAKI-1. The GI50 with NCI-H460 was > 100 µM (inactive); in the experiment with OVCAR-3 it was 55 µM (inactive); with SK-MEL-28, > 100 µM (inactive); with MCF7, > 100 µM (inactive); in the experiment with CCRF-CEM, 39.6 µM (inactive); in the experiment on HL-60, 30.5 µM (inactive). In the experiment with SR, the GI50 was 51.3 µM (inactive).

As for `OC(CC(O)(C(F)(F)F)C(F)(F)F)c1ccc(C(O)CC(O)(C(F)(F)F)C(F)(F)F)cc1` (stereo not drawn), the GI50 with PC-3 is 18.2 µM (inactive); in the experiment with T47D, 13.3 µM (inactive); in the experiment on A549 it was 14.4 µM (inactive); with UO-31, 10.8 µM (inactive); in the experiment on RPMI-8226, 15.6 µM (inactive); in the experiment on NCI/ADR-RES, 14.6 µM (inactive). The GI50 in the experiment on MDA-MB-435 is 18.2 µM (inactive); with SNB-19 it was 17.1 µM (inactive); with SK-OV-3, 17 µM (inactive); with MDA-N, 19.5 µM (inactive); with CAKI-1, 12.7 µM (inactive); with NCI-H460, 14.7 µM (inactive). Besides, the GI50 with OVCAR-3 was 6.38 µM (inactive); with SK-MEL-28, 16 µM (inactive); in the experiment with CCRF-CEM, 16.8 µM (inactive); in the experiment with HL-60 it was 17.1 µM (inactive); with SR, 17.1 µM (inactive).

Take `COC1=CC(=O)C[C@@H](C)[C@]12Oc1c(Cl)c(OC)cc(OC)c1C2=O` [GRISEOFULVIN]: the GI50 is 10.8 µM (inactive) in the experiment on PC-3; 38.2 µM (inactive) with T47D; 63.5 µM (inactive) in the experiment with A549; 43.7 µM (inactive) with UO-31; 19.4 µM (inactive) in the experiment on RPMI-8226; > 85.1 µM (inactive) with TK-10. Besides, the GI50 in the experiment on NCI/ADR-RES is 12.3 µM (inactive); in the experiment with NCI-H226, 52.8 µM (inactive); in the experiment on MDA-MB-435, 2.42 µM (inactive); in the experiment on SNB-19, 35.2 µM (inactive); in the experiment on SK-OV-3 it was 35.4 µM (inactive); in the experiment on CAKI-1, 9.53 µM (inactive). Further, the GI50 with NCI-H460 was 28 µM (inactive); in the experiment with OVCAR-3 it was 37.3 µM (inactive); in the experiment with SK-MEL-28, 99.3 µM (inactive); in the experiment on MCF7 it was 9.62 µM (inactive); with CCRF-CEM, 33.3 µM (inactive); in the experiment on HL-60, 6.7 µM (inactive). Further, the GI50 with SR was 7.48 µM (inactive).
